The numbers were not newly measured in patent US20250340540A1, “Crystal Forms Of HS378 And Preparation Method Therefor” (priority 2022, published 2025), which cites them from elsewhere.

For this data set, the system named is novel coronavirus. The settings on record: mouse, in vivo; cited from earlier work.

Take `CC(C)(C)[C@H](NC(=O)C(F)(F)F)C(=O)N1C[C@H]2[C@@H]([C@H]1C(=O)N[C@H](C#N)C[C@@H]1CCNC1=O)C2(C)C` [HS378, (1R, 2S, 5S)-N-{(1S)-1-cyano-2-[(3S)-2-oxopyrrolidin-3-yl]-ethyl}-6,6-dimethyl-3-[3-methyl-N-(trifluoroacetyl)-L-valyl]-3-azabicyclo [3.1.0]hexane-2-carboxamide]: the Oral activity result is recorded as “Oral activity was demonstrated”.
